The text below walks through data of ChEMBL document CHEMBL1201862, “PubChem BioAssay data set” (2004).

Molecules are shown by their SMILES.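 Where inhibition never reached the appropriate level, the endpoint shown equals the highest concentration tested. Otherwise, values were interpolated linearly from a five-concentration, 48-hour dose response in 96-well plates. Abbreviation: GI50, concentration required for 50% inhibition of growth.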 Active and inactive are the calls of the source. No stated cut-off is given here; in the data, active = GI50 up to about 1.1 µM and inactive = higher. A value given as a limit tells only on which side of the number the result lay.

Among the test systems are SR; T47D; HOP-62; 786-0; U-251; OVCAR-3; HCT-116; TK-10; SK-MEL-5; NCI-H460; CCRF-CEM; HOP-92; NCI-H226; NCI/ADR-RES; OVCAR-4; SF-268; HCT-15; SW-620; SK-OV-3.
Holding throughout (assay): NCI tumour cell line growth inhibition, 48 h

On to `CN1CCc2cc(N)cc3c2C1Cc1ccc(O)c(O)c1-3` (stereo unspecified), for which the GI50 with SR is 28.4 µM (inactive); in the assay with T47D it was 61.8 µM (inactive); in the assay with HOP-62, 49.3 µM (inactive); in the assay on 786-0 it was 33 µM (inactive); in the assay with U-251, 39.5 µM (inactive); in the assay on OVCAR-3, 27.4 µM (inactive). Also, the GI50 with HCT-116 is 32.2 µM (inactive); with TK-10 it was 24.7 µM (inactive); in the assay with SK-MEL-5, 20.4 µM (inactive); with NCI-H460, 30.5 µM (inactive); with CCRF-CEM it was 3.75 µM (inactive); in the assay on HOP-92 it was 51.2 µM (inactive). The GI50 with NCI-H226 is 32.7 µM (inactive); in the assay with NCI/ADR-RES it was 36.8 µM (inactive); in the assay on OVCAR-4, 31.6 µM (inactive); in the assay with SF-268 it was 6.43 µM (inactive); with HCT-15 it was 36.4 µM; in the assay on SW-620, 31.8 µM (inactive). For the same compound, the GI50 in the assay on SK-OV-3 was 52.7 µM (inactive).

With `Fc1cc(-c2cc(-c3ccc4c(c3)OCO4)n[nH]2)c(Cl)cc1Cl`, the GI50 is 7.29 µM (inactive) in the assay with SR; 2.2 µM (inactive) in the assay on T47D; 2.29 µM (inactive) with HOP-62; 1.84 µM (inactive) in the assay with 786-0; 1.91 µM (inactive) in the assay with U-251; 2.21 µM (inactive) with OVCAR-3. In addition, the GI50 in the assay on HCT-116 is 2 µM (inactive); in the assay with TK-10, 3 µM (inactive); in the assay on SK-MEL-5, 6.38 µM (inactive); in the assay on NCI-H460 it was 3.61 µM (inactive); with CCRF-CEM, 11.9 µM (inactive); in the assay with HOP-92, 2.26 µM (inactive). In addition, the GI50 in the assay on NCI-H226 was 1.99 µM (inactive); in the assay on NCI/ADR-RES it was 3.33 µM (inactive); in the assay on OVCAR-4, 1.91 µM (inactive); in the assay on SF-268, 3.24 µM (inactive); with HCT-15, 7.71 µM; in the assay with SW-620, 4.6 µM (inactive). Besides, the GI50 in the assay with SK-OV-3 was 2.13 µM (inactive).

For `COc1ccc(/N=C(Nc2ccc(OC)cc2)/C(=N/c2ccc(OC)cc2)Nc2ccc(OC)cc2)cc1`, the GI50 in the assay with SR was 48.2 µM (inactive); in the assay with T47D it was > 100 µM (inactive); in the assay with HOP-62, > 100 µM (inactive); in the assay with 786-0 it was > 100 µM (inactive); with U-251, > 100 µM (inactive); in the assay on OVCAR-3 it was > 100 µM (inactive). Further, the GI50 in the assay on HCT-116 was > 100 µM (inactive); with TK-10, > 100 µM (inactive); in the assay with SK-MEL-5 it was > 100 µM (inactive); in the assay on NCI-H460, > 100 µM (inactive); in the assay on CCRF-CEM, 36 µM (inactive); in the assay with HOP-92, > 100 µM (inactive). Also, the GI50 is > 100 µM (inactive) with NCI-H226; > 100 µM (inactive) in the assay with NCI/ADR-RES; > 100 µM (inactive) in the assay with OVCAR-4; > 100 µM (inactive) in the assay on SF-268; more than 100 µM in the assay with HCT-15; > 100 µM (inactive) in the assay on SW-620. Also, in the assay with SK-OV-3, the GI50 was > 100 µM (inactive).

`CC(=O)C1(O)CCC2(O)C3(O)CC=C4CC(O)CCC4(C)C3CC(OC(=O)c3ccc(O)cc3)C12C` (stereo unspecified): the GI50 with SR, with T47D, in the assay with HOP-62, with 786-0, in the assay with U-251 and in the assay on OVCAR-3 was > 100 µM (inactive) in each case. The GI50 with HCT-116, with TK-10, with SK-MEL-5, with NCI-H460, in the assay with CCRF-CEM and in the assay with HOP-92 was > 100 µM (inactive) in each case. For the same compound, the GI50 in the assay on NCI-H226 is 80.2 µM (inactive); in the assay on NCI/ADR-RES it was > 100 µM (inactive); with OVCAR-4, > 100 µM (inactive); in the assay on SF-268, > 100 µM (inactive); in the assay on HCT-15 it was more than 100 µM; with SW-620 it was > 100 µM (inactive). In addition, in the assay with SK-OV-3, the GI50 is > 100 µM (inactive).
